How the values were obtained:
[1] = molecular target: T1, Tie2 (Homo sapiens, UniProt Q02763); assay: Tie-2 ELISA: angiopoietin-2 stimulated Tie2 autophosphorylation in Tie2-transfected CHO cells (Biological Experiment 1); format: cell-based; parameters: expressed in transfected cells; host or cells: CHO (DHFR-deficient), stably transfected; settings: mean IC50; CHO Tie2/DHFR cells stimulated with Ang2-Fc
Method: Biological Experiment 1: ELISA-Assay
Herein CHO cell-cultures, which are stably transfected by known techniques with Tie2 using DHFR deficiency as selection marker, are stimulated by angiopoietin-2. The specific autophosphorylation of Tie2 receptors is quantified with a sandwich-ELISA using anti-Tie2 antibodies for catch and anti-phosphotyrosine antibodies coupled to HRP as detection.
• 1 cap Vanadate (1 mL>40 mg/mL; working solution 2 mM) • ad 50 mL with Duschl buffer • pH 7.6 Anti-TIE-II antibody 1:425 in Coating Buffer pH 9.6 Stock solution: 1.275 mg/ml>working.: 3 μg/mL PBST: 2 bottles PBS(10×)+10 ml Tween, fill up with deionised water RotiBlock 1:10 in deionised water Anti-Phosphotyrosine HRP-Conjugated 1:10000 in 3% TopBlock • 3% TopBlock in PBST BM Chemiluminescence ELISA Substrate (POD) • solution B 1:100 solution A SF9 cell culture medium Ang2-Fc in SF9 cell culture medium Cell Experiment: Dispense 5×10^4 cells/well/98 μl in 96 well tissue culture plate Incubate at 37° C./5% CO2 After 24 h add compounds according to desired concentrations Add also to control and stimulated values without compounds 2 μl DMSO And mix for a few min at room temperature Add 100 μAng2-Fc to all wells except control, which receives insect medium Incubate 20 min at 37° C. Wash 3× with PBS++ Add 100 μl Lysis buffer/well and shake a couple of min at room temperature Store lysates at […] before utilizing for the ELISA Performance of Sandwich-ELISA Coat 96 well FluoroNunc Plate MaxiSorp Surface C with anti-Tie2 Mab 1:425 in Coating buffer pH 9.6; 100 μL/well overnight at 4° C. Wash 2× with PBST Block plates with 250 μL/well RotiBlock 1:10 in deionised water Incubate for 2 h at room temperature or overnight at 4° C. shaking Wash 2× in PBST Add thawed lysates to wells and incubate overnight shaking at 4° C. Wash 2× with PBST Add 100 μL/well anti-Phosphotyrosine HRP-Conjugated 1:10000 in 3% TopBlock (3% TopBlock in PBST) and incubate overnight under shaking Wash 6× with PBST Add 100 μL/well BM Chemiluminescence ELISA Substrate (POD solutions 1 and 2 (1:100) Determine luminescence with the LumiCount. Biological Experiment 2: Tie-2-Kinase HTRF-Assay
Target sequence in this assay (Q02763 23-1124): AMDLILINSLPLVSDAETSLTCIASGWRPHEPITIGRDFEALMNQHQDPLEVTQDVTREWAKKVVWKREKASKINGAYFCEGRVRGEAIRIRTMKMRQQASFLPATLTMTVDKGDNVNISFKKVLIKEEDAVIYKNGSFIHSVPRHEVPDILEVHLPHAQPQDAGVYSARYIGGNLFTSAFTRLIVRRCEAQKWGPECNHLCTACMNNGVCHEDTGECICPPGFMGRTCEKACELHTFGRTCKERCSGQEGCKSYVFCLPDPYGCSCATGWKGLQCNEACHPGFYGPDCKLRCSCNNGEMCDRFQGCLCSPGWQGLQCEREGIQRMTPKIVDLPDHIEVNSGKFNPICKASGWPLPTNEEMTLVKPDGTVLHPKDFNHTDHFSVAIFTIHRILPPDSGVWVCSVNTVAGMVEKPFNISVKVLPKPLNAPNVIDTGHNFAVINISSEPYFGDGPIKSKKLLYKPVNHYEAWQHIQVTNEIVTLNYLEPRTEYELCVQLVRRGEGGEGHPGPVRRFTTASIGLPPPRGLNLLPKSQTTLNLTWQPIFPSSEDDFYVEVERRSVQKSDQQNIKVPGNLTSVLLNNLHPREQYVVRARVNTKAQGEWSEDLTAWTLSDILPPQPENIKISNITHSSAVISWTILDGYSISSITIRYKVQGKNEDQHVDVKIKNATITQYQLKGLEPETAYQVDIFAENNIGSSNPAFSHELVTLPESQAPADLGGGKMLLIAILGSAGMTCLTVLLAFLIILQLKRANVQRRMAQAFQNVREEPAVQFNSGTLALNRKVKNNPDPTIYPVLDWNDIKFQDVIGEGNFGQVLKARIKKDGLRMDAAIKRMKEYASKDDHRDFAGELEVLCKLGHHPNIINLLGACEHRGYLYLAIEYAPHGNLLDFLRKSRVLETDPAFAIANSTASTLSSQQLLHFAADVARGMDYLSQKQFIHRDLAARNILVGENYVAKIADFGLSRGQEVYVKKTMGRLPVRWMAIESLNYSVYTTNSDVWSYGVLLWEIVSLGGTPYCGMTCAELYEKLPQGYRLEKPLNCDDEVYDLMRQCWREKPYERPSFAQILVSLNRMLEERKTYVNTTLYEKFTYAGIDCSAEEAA

[2] = molecular target: T2, VEGFR-2 (Homo sapiens, UniProt P35968); assay: VEGFR-2 kinase assay (Biological Experiment 5, HTRF); format: biochemical; settings: mean IC50; recombinant VEGFR-2, 10 μM ATP; read-out: Inhibition of VEGFR-2 kinase
T2 construct: made in house; host or cells: E. coli
T2 sequence (P35968 20-1356): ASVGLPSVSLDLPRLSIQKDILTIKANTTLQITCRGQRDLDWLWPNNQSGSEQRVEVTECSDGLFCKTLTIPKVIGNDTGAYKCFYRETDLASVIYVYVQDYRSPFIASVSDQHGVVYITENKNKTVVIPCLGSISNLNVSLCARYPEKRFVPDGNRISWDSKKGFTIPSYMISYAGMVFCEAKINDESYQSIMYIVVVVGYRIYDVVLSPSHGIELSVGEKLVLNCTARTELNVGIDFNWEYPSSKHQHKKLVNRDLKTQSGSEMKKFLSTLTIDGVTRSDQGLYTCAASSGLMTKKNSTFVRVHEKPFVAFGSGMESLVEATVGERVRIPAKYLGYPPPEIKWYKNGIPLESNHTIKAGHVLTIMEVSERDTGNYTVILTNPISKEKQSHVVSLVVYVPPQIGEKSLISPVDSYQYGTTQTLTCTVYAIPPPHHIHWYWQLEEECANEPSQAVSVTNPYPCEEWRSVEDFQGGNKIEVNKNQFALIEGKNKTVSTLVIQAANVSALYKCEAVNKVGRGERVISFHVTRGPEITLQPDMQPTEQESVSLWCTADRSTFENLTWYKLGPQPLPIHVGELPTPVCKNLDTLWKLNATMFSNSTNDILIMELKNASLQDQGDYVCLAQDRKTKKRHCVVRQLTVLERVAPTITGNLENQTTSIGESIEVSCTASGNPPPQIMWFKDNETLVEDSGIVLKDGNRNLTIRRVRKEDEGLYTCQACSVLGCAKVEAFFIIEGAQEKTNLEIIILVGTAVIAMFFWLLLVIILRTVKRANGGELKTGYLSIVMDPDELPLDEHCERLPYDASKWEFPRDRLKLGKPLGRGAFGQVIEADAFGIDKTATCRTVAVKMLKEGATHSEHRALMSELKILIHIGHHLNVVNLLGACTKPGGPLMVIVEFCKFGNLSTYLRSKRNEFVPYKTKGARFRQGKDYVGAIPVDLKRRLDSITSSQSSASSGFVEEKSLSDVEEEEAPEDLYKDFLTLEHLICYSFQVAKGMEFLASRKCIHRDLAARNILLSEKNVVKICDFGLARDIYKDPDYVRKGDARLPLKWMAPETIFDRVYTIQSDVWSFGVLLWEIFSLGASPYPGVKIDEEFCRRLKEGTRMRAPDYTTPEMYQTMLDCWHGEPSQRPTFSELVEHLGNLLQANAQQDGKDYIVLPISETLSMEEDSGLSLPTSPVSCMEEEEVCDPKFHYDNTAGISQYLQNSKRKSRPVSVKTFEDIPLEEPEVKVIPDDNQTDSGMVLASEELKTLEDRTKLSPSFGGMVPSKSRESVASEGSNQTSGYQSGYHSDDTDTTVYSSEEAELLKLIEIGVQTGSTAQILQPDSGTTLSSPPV
Method: Biological Experiment 5: VEGFR-2 Kinase Assay
Recombinant VEGFR-2 protein was expressed in E. coli and purified. As kinase substrate, a biotinylated peptide with the amino acid sequence biotin-DFGLARDMYDKEYYSVG was used, which was obtained from Biosynthan.
VEGFR-2 [Test volume 5 μL] was incubated for 45 min at 22° C. in the presence of different concentrations of test substances (0 μM, including 10 datapoints within the range 0.001-20 μM in duplicate) in assay buffer [50 mM HEPES pH7.0, 25.0 mM MgCl2, 5.0 mM MnCl2, 0.1 mM Na ortho-Vanadate, 1.0 mM Dithiothreitol, 0.001% NP40, 10 μM ATP, 1.2 μM peptide substrate, 1.0% DMSO]. The reaction was stopped by addition of 5 μL of an EDTA/detection-solution [50 mM HEPES pH7.5, 125 mM EDTA, 0.2% BSA, 0.1 μM Streptavidin-XLent (obtained from CisBio), 1 nM PT66-Eu (obtained from PerkinElmer)]. The measurement of the fluorescence emission at 620 nm and 665 nm through excitation with light of wavelength 350 nm was accomplished in a Rubystar HTRF-measurement instrument obtained from BMG Labsystems.
The data (ratio of emission at 665 nm to emission at 620 nm multiplied by 10000) was normalised to 0% inhibition (enzyme reaction without inhibitor) and 100% inhibition (all assay components without enzyme). The determination of the IC50 values was accomplished with a 4-parameter fit using in-house software.

[3] = molecular target: T1, Tie2; assay: Tie-2 kinase assay without preactivation of kinase (Biological Experiment 3, HTRF); format: biochemical; parameters: fusion protein of GST and the intracellular domains of Tie-2; GST; made in house; host or cells: insect cells (Hi-5); settings: mean IC50; GST-Tie-2 without preactivation, 10 μM ATP; read-out: Inhibition of Tie-2 kinase (Biological Experiment 3)
Excerpt: Biological Experiment 3: Tie-2 Kinase Assay without Preactivation of Kinase
A recombinant fusion protein of GST and the intracellular domains of Tie-2, expressed in insect cells (Hi-5) and purified by Glutathion-Sepharose affinity chromatography was used as kinase. Alternatively, commercially available GST-Tie2-fusion protein (Upstate Biotechnology, Dundee, Scotland) can be used. As substrate for the kinase reaction the biotinylated peptide biotin-Ahx-EPKDDAYPLYSDFG (C-terminus in amide form) was used which can be purchased e.g. from the company Biosynthan GmbH (Berlin-Buch, Germany). Tie-2 (3.5 ng/measurement point) was incubated for 60 min at 22° C. in the presence of 10 μM adenosine-tri-phosphate (ATP) and 1 μM substrate peptide (biotin-Ahx-EPKDDAYPLYSDFG-NH2) with different concentrations of test compounds (0 μM and concentrations in the range 0.001-20 μM) in 5 μl assay buffer [50 mM Hepes/NaOH pH 7, 10 mM MgCl2, 0.5 mM MnCl2, 1.0 mM dithiothreitol, 0.01% NP40, protease inhibitor mixture (“Complete w/o EDTA” from Roche, 1 tablet per 2.5 ml), 1% (v/v) dimethylsulfoxide]. To stabilize the enzyme, bovine serum albumin (0.1%, w/v) can be added. The reaction was stopped by the addition of 5 μl of an aqueous buffer (25 mM Hepes/NaOH pH 7.5, 0.28% (w/v) bovine serum albumin) containing EDTA (90 mM) and the HTRF (Homogeneous Time Resolved Fluorescence) detection reagents streptavidine-XLent (0.2 μM, from C is Biointernational, Marcoule, France) and PT66-Eu-Chelate (0.3 ng/μl; a europium-chelate labelled anti-phospho-tyrosine antibody from Perkin Elmer).
The resulting mixture was incubated 1 h at 22° C. to allow the binding of the biotinylated phosphorylated peptide to the streptavidine-XLent and the PT66-Eu-Chelate. Subsequently the amount of phosphorylated substrate peptide was evaluated by measurement of the resonance energy transfer from the PT66-Eu-Chelate to the streptavidine-XLent. Therefore, the fluorescence emissions at 620 nm and 665 nm after excitation at 350 nm was measured in a HTRF reader, e.g. a Rubystar (BMG Labtechnologies, Offenburg, Germany) or a Viewlux (Perkin-Elmer). The ratio of the emissions at 665 nm and at […] was taken as the measure for the amount of phosphorylated substrate peptide. The data were normalised (enzyme reaction without inhibitor=0% inhibition, all other assay components but no enzyme=100% inhibition) and IC50 values were calculated by a 4 parameter fit using an inhouse software.
Target sequence in this assay (Q02763 770-1124 limits assumed): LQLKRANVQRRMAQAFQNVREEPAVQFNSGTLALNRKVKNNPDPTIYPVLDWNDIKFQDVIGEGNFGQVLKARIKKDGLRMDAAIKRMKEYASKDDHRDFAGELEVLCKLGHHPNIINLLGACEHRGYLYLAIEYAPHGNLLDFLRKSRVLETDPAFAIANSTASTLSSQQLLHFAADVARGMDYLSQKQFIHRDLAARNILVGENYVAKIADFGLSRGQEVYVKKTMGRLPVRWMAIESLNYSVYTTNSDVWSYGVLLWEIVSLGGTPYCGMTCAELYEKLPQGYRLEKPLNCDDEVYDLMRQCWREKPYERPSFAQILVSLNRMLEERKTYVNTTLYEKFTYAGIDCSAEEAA

IC50 [1]	IC50 [2]	IC50 [3]	SMILES
500 to 2000 nM	500 to 2000 nM	≤ 500 nM	CC(C)(C)c1cc(-c2ccc(NC(=O)Nc3ccccc3)cc2)c2c(N)n[nH]c2n1 [Example 1, 1-[4-(3-amino-6-tert-butyl-1H-pyrazolo[3,4-b]pyridin-4-yl)-phenyl]-3-phenyl-urea]
500 to 2000 nM		500 to 2000 nM	CC(C)(C)c1cc(-c2ccc(NS(=O)(=O)c3ccccc3)cc2)c2c(N)n[nH]c2n1 [Example 2, N-[4-(3-amino-6-tert-butyl-1H-pyrazolo[3,4-b]pyridin-4-yl)-phenyl]-benzenesulfonamide]
≤ 500 nM		500 to 2000 nM	CC(C)(C)c1cc(-c2ccc(NC(=O)Nc3cccc(F)c3)cc2)c2c(N)n[nH]c2n1 [Example 3, 1-[4-(3-amino-6-tert-butyl-1H-pyrazolo[3,4-b]pyridin-4-yl)-phenyl]-3-(3-fluoro-phenyl)-urea]
≤ 500 nM	500 to 2000 nM	≤ 500 nM	Cc1cccc(NC(=O)Nc2ccc(-c3cc(C(C)(C)C)nc4[nH]nc(N)c34)cc2)c1 [Example 9, 1-[4-(3-amino-6-tert-butyl-1H-pyrazolo[3,4-b]pyridin-4-yl)-phenyl]-3-m-tolyl-urea]
≤ 500 nM		500 to 2000 nM	CC(C)(C)c1cc(-c2ccc(NC(=O)Nc3ccc(F)cc3)cc2)c2c(N)n[nH]c2n1 [Example 12, 1-[4-(3-amino-6-tert-butyl-1H-pyrazolo[3,4-b]pyridin-4-yl)-phenyl]-3-(4-fluoro-phenyl)-urea]
≤ 500 nM	≤ 500 nM	500 to 2000 nM	Nc1n[nH]c2nc(C3CC3)cc(-c3ccc(NC(=O)Nc4ccccc4)cc3)c12 [Example 14, 1-[4-(3-amino-6-cyclopropyl-1H-pyrazolo[3,4-b]pyridin-4-yl)-phenyl]-3-phenyl-urea]
≤ 500 nM	500 to 2000 nM	≤ 500 nM	Nc1n[nH]c2nc(C3CC3)cc(-c3ccc(NC(=O)Nc4ccccc4F)cc3)c12 [Example 15, 1-[4-(3-amino-6-cyclopropyl-1H-pyrazolo[3,4-b]pyridin-4-yl)-phenyl]-3-(2-fluoro-phenyl)-urea]
≤ 500 nM	≤ 500 nM	≤ 500 nM	CC(C)c1cc(-c2ccc(NC(=O)Nc3cccc(C(F)(F)F)c3)cc2)c2c(N)n[nH]c2n1 [Example 16, 1-[4-(3-amino-6-isopropyl-1H-pyrazolo[3,4-b]pyridin-4-yl)-phenyl]-3-(3-trifluoromethyl-phenyl)-urea]
500 to 2000 nM	500 to 2000 nM	500 to 2000 nM	Cc1ccc(C(=O)Nc2ccc(-c3cc(C(C)(C)C)nc4[nH]nc(N)c34)cc2)cc1 [Example 17, N-[4-(3-amino-6-tert-butyl-1H-pyrazolo[3,4-b]pyridin-4-yl)-phenyl]-4-methyl-benzamide]
≤ 500 nM	≤ 500 nM	≤ 500 nM	CC(C)(C)c1cc(-c2ccc(NC(=O)Nc3cccc(C(F)(F)F)c3)cc2)c2c(N)n[nH]c2n1 [Example 27, 1-[4-(3-amino-6-tert-butyl-1H-pyrazolo-[3,4-b]pyridin-4-yl)-phenyl]-3-(3-trifluoro-methyl-phenyl)-urea]
		≤ 500 nM	Cc1ccc(F)c(NC(=O)Nc2ccc(-c3cc(C(C)(C)C)nc4[nH]nc(N)c34)cc2)c1 [Example 31, 1-[4-(3-amino-6-tert-butyl-1 H-pyrazolo[3,4-b]pyridin-4-yl)-phenyl]-3-(2-fluoro-5-methyl-phenyl)-urea]
≤ 500 nM	≤ 500 nM	≤ 500 nM	CC(C)(C)c1cc(-c2ccc(NC(=O)Nc3cc(C(F)(F)F)ccc3F)cc2)c2c(N)n[nH]c2n1 [Example 37, 1-[4-(3-amino-6-tert-butyl-1H-pyrazolo[3,4-b]pyridin-4-yl)-phenyl]-3-(2-fluoro-5-trifluoromethyl-phenyl)-urea]
500 to 2000 nM		500 to 2000 nM	CC(C)(C)c1cc(-c2ccc(NC(=O)Cc3ccccc3)cc2)c2c(N)n[nH]c2n1 [Example 47, N-[4-(3-amino-6-tert-butyl-1H-pyrazolo[3,4-b]pyridin-4-yl)-phenyl]-2-phenyl-acetamide]
≤ 500 nM		≤ 500 nM	CC(C)(C)c1cc(-c2ccc(NC(=O)C3(c4ccccc4)CC3)cc2)c2c(N)n[nH]c2n1 [Example 49, 1-phenyl-cyclopropanecarboxylic acid [4-(3-amino-6-tert-butyl-1H-pyrazolo[3,4-b]pyridin-4-yl)-phenyl]-amide]
≤ 500 nM		500 to 2000 nM	CC(C)(C)c1cc(-c2ccc(NC(=O)C(C)(C)c3ccccc3)cc2)c2c(N)n[nH]c2n1 [Example 51, N-[4-(3-amino-6-tert-butyl-1H-pyrazolo[3,4-b]pyridin-4-yl)-phenyl]-2-phenyl-isobutyramide]

From patent US7842809B2, “Pyrazolopyridines and salts thereof, a pharmaceutical composition comprising said compounds, a method of preparing same and use of same” (Bayer Schering Pharma AG, priority 2005, dated 2010)
